Data taken from US20210308034A1, “PREBIOTIC COMPOSITIONS AND METHODS FOR MAINTAINING A HEALTHY SKIN MICROBIOTA” (KIMBERLY-CLARK WORLDWIDE, INC., priority 2018, published 2021).

Tests used:
Format in all cases: cell-based
[1] = tested on: Corynebacterium jeikum (ATCC 33033); assay: Carbohydrate Screening Test Method (Biolog phenotype microarray), Bacteria Code B; details: Commensal; carbon microarray plate, OD 600 nm, 36 hr, 33° C.; positive = more than 0.05 OD units above zero; blank cell = not utilized
In short: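 Strain from M9*2 agar was suspended in M9*1 medium, washed and inoculated into Biolog PM1/PM2 carbon plates. Carbohydrate use was scored yes/no, and growth rate and maximum yield were derived with GrowthRates 2.1, with max yields used for commensal ratios.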

[2] = tested on: Micrococcus luteus (SK58); assay: Carbohydrate Screening Test Method (Biolog phenotype microarray), Bacteria Code E; details: Commensal; carbon microarray plate, OD 600 nm, 36 hr, 33° C.; positive = more than 0.05 OD units above zero; blank cell = not utilized
In short: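 Each commensal strain grown in Biolog carbon phenotype microarray plates with single carbohydrate sources. Growth curves fitted with GrowthRates 2.1 to give growth rate and maximum yield. Max yields used to calculate predicted co-culture ratios between Corynebacterium, Staphylococcus and Micrococcus, compared with desired ratios of 1.3, 1.4 and 1.1.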

[3] = tested on: Staphylococcus epidermidis (ATCC 14990); assay: Carbohydrate Screening Test Method (Biolog phenotype microarray), Bacteria Code I; details: Commensal; carbon microarray plate, OD 600 nm, 36 hr, 33° C.; positive = more than 0.05 OD units above zero; blank cell = not utilized
Source text: (§1) After creating desired ratios of various commensal skin bacteria in a healthy skin microbiome, 188 different carbohydrate sources were screened as the next step in determining potential prospects for skin microbiota balancing agents. The screening process was set up to determine which carbohydrate sources promoted commensal and/or pathogenic bacteria as well as to obtain individual and combinations of carbohydrate sources that could serve as microbiota balancing agents that can support or maintain the healthy proportions of commensal skin bacteria of Corynebacterium, Staphylococcus, and Micrococcus. The screening was conducted utilizing Biolog phenotype microarray plates (Hayward, Calif.). Table 1 provides a coded list of the commensal and pathogenic skin bacteria that the carbohydrates were screened against.
Table 2 provides the results of screening various carbohydrate sources against the commensal and pathogenic bacteria codes listed in Table 1. The Bacteria Codes B, D, E, I, and J are commensal bacteria and are shaded in Table 2 for references purposes. The bacteria codes were each placed in a carbon microarray plate and screened through the Carbohydrate Screening Test Method, as described in the Test Methods section herein. If a particular bacteria code utilized a specific carbohydrate source as described in the Carbohydrate Screening Test Method, then the corresponding cell in Table 2 was marked with a Y (short for “Yes”). […] Many of the carbohydrate sources were utilized by both commensal and pathogenic bacteria, and as such, would not provide an advantage for selective growth of the commensal bacteria. However, some of the carbohydrate sources were only used by commensal bacteria and were identified for further testing as described herein.
(§2) The study employed 10 representative skin bacteria; Staphylococcus epidermidis ATCC 14990, Staphylococcus epidermidis M23864:W2, Staphylococcus aureus ATCC 6538, Staphylococcus aureus ATCC 25904 (Newman), Pseudomonas aeruginosa ATCC 9027, Micrococcus luteus ATCC […], Micrococcus luteus SK58, Klebsiella pneumoniae ATCC BAA-2146, Corynebacterium amycolatum SK46, and Corynebacterium minutissimum ATCC 23348. Cultures were started from freezer bead stocks by placing a single bead into 20 mL of tryptic soy broth (TSB) for all organisms except C. amycolatum SK46 and C. minutissimum ATCC 23348, which were placed into brain heart infusion (BHI) broth. Cultures were grown for about 24 hr at 37° C. except M. luteus ATCC 49732 and M. luteus SK58, which were grown at 30° C. A passage of the culture was made using a sterile swab and streaked onto two M9*2 agar plates to prepare the incubated culture for the phenotype microarray pate according to Table 4. Plates were incubated for about 24 hr at 37° C. except for M. luteus ATCC 49732 and M. luteus SK58, which were incubated at 30° C. for 24 hr.
(§3) All cultures were harvested and washed before inoculation into the carbon microarray plate (BiOLOG, Hayward Calif.), with Biolog Plates PM1 and PM2 each having a source definition of Carbon. The bacteria on the M9*2 agar was suspended via agitation with an inoculating loop in 1 mL of M9*1 media for collection in a 1.7 mL micro centrifuge tube, as noted in Table 4. The bacteria was suspended again in M9*1 media, agitated, and collected into the same 1.7 mL microcentrifuge tube used in the previous step. The tube was centrifuged for 5 minutes at 4,000×G, supernatant decanted, the pellet was resuspended in 1 mL of M9*1 media, and vortex. This washing process was repeated for a total of 4 times.
A tenfold dilution in M9*1 media was performed using 1 mL of the washed bacterial culture. Of the tenfold dilution 200 μL was placed in an untreated 96-well plate (Falcon, Pasadena Tx.) for an initial optical density (OD) reading at a wavelength of 600 nm. The OD was used to correlate to colony forming units (CFU) per milliliter by using linear regression lines for each organism. […]

[4] = tested on: Staphylococcus epidermidis (M23864:W2); assay: Carbohydrate Screening Test Method (Biolog phenotype microarray), Bacteria Code J; details: Commensal; carbon microarray plate, OD 600 nm, 36 hr, 33° C.; positive = more than 0.05 OD units above zero; blank cell = not utilized
Source text: as §1
(§4) The Bacteria Codes B, D, E, I, and J are commensal bacteria and are shaded in Table 2 for references purposes. The bacteria codes were each placed in a carbon microarray plate and screened through the Carbohydrate Screening Test Method, as described in the Test Methods section herein. If a particular bacteria code utilized a specific carbohydrate source as described in the Carbohydrate Screening Test Method, then the corresponding cell in Table 2 was marked with a Y (short for “Yes”).
To do so, the respective microarray data for the 79 carbohydrate sources was run through the GrowthRates 2.1 program to obtain growth parameters, such as growth rates and maximum yield data as described by the Belingham Research Institute, Hall, B. G., H. Acar and M. Barlow. 2014 Growth Rates Made Easy. Mol. Biol. Evol. 31:232-238 doi:10.1093/molbev/mst197. The max yield parameters generated were utilized to calculate ratios of tested commensal bacteria. The ratios calculated were compared back to the desired ratios identified above (Corynebacterium to Staphylococcus of 1.3, Corynebacterium to Micrococcus of 1.4, and Staphylococcus to Micrococcus of 1.1).
As an example of this methodology used to calculate the commensal bacteria ratios and the difference between the calculated ratios and the desired ratios, an example code from Table 3 will be described. […] The max yields were then used to calculate ratios the bacteria would reach in a co-culture.

[5] = tested on: Pseudomonas aeruginosa (ATCC 9027); details: Pathogenic; carbon microarray plate, OD 600 nm, 36 hr, 33° C.; positive = more than 0.05 OD units above zero; blank cell = not utilized
Source text: as §1, §4, §2, §3
A tenfold dilution in M9*1 media was performed using 1 mL of the washed bacterial culture. Of the tenfold dilution 200 μL was placed in an untreated 96-well plate (Falcon, Pasadena Tx.) for an initial optical density (OD) reading at a wavelength of 600 nm. The OD was used to correlate to colony forming units (CFU) per milliliter by using linear regression lines for each organism.

[6] = tested on: Klebsiella pneumoniae (ATCC BAA-2146); details: Pathogenic; carbon microarray plate, OD 600 nm, 36 hr, 33° C.; positive = more than 0.05 OD units above zero; blank cell = not utilized
[7] = tested on: commensal and pathogenic skin bacteria; assay: Carbohydrate Screening Test Method, all bacteria codes tested; details: ten bacteria codes of Table 1
Source text: as §1, §4, §2, §3
A tenfold dilution in M9*1 media was performed using 1 mL of the washed bacterial culture.

Row | Compound | Carbohydrate Screening Results, Bacteria Code I [3] | Carbohydrate Screening Results, Bacteria Code J [4] | utilization by the bacteria codes tested [7] | other results
1 | OC[C@H]1O[C@@H](O[C@@H]2[C@@H](CO)OC(O)(CO)[C@H]2O)[C@H](O)[C@@H](O)[C@H]1O (mixture of isomers) [Lactulose] | Y | Y |  | Carbohydrate Screening Results, Bacteria Code B [1]: Y; Carbohydrate Screening Results, Bacteria Code E [2]: Y
2 | OC[C@H]1O[C@@H]2O[C@H]3[C@H](O)[C@@H](O)[C@@H](O[C@H]4[C@H](O)[C@@H](O)[C@@H](O[C@H]5[C@H](O)[C@@H](O)[C@@H](O[C@H]6[C@H](O)[C@@H](O)[C@@H](O[C@H]7[C@H](O)[C@@H](O)[C@@H](O[C@H]1[C@H](O)[C@H]2O)O[C@@H]7CO)O[C@@H]6CO)O[C@@H]5CO)O[C@@H]4CO)O[C@@H]3CO [α-Cyclodextrin] | Y | Y |  | 
3 | COC(=O)C(C)=O [Methyl Pyruvate] | Y | Y |  | Carbohydrate Screening Results, Bacteria Code B [1]: Y
4 | OC[C@H]1O[C@@H](O[C@H]2[C@H](O)[C@@H](O)[C@@H](O)O[C@@H]2CO)[C@H](O)[C@@H](O)[C@H]1O [α-D-Lactose] | Y | Y |  | Carbohydrate Screening Results, Bacteria Code B [1]: Y; Carbohydrate Screening Results, Bacteria Code E [2]: Y
5 | Inulin | Y | Y |  | 
6 | CC(O)C(C)O (centres unmarked) [2,3-Butanediol] | Y | Y |  | 
7 | N[C@@H](CCO)C(=O)O [L-Homoserine] | Y |  |  | 
8 | Pectin | Y | Y |  | 
9 | CC(O)CC(=O)O (stereo not drawn) [β-Hydroxy Butyric Acid] | Y |  |  | Carbohydrate Screening Results, Bacteria Code F [5]: Y
10 | NCCCCN [Putrescine] | Y | Y |  | Carbohydrate Screening Results, Bacteria Code C [6]: Y
11 | O=C(O)CCCCCCCCC(=O)O [Sebacic Acid] | Y | Y |  | 
12 | O=C(O)C[C@@H](O)C(=O)O [D-Malic Acid] | Y |  |  | Carbohydrate Screening Results, Bacteria Code B [1]: Y; Carbohydrate Screening Results, Bacteria Code E [2]: Y
13 | O=C(O)C(=O)O [Oxalic Acid] | Y | Y |  | 
14 | O=C(CO)[C@@H](O[C@H]1O[C@H](CO)[C@@H](O)[C@H](O)[C@H]1O)[C@H](O)[C@H](O)CO [Turanose] | Y |  |  | 
15 | NCCCC(=O)O [γ-Amino Butyric Acid] | Y | Y |  | 
16 | Tween 80 | Y |  |  | Carbohydrate Screening Results, Bacteria Code B [1]: Y; Carbohydrate Screening Results, Bacteria Code E [2]: Y

Row | Compound | Carbohydrate Screening Results, Bacteria Code I [3] | Carbohydrate Screening Results, Bacteria Code J [4] | utilization by the bacteria codes tested [7] | other results
17 | COC(=O)CCC(=O)O [Mono Methyl Succinate] | Y |  |  | Carbohydrate Screening Results, Bacteria Code B [1]: Y; Carbohydrate Screening Results, Bacteria Code E [2]: Y
18 | OC[C@H]1O[C@@H](O[C@H]2[C@H](O)[C@@H](O)[C@H](O)O[C@@H]2CO)[C@H](O)[C@@H](O)[C@@H]1O [D-Cellobiose] | Y |  |  | Carbohydrate Screening Results, Bacteria Code B [1]: Y; Carbohydrate Screening Results, Bacteria Code C [6]: Y; Carbohydrate Screening Results, Bacteria Code E [2]: Y
19 | OC[C@@H](O)[C@@H](O[C@@H]1O[C@H](CO)[C@H](O)[C@H](O)[C@H]1O)[C@H](O)[C@@H](O)CO [Lactitol] | Y | Y |  | Carbohydrate Screening Results, Bacteria Code C [6]: Y
20 | O=C(O)CC(O)C(=O)O (racemic) [D,L-Malic Acid] | Y | Y |  | Carbohydrate Screening Results, Bacteria Code B [1]: Y; Carbohydrate Screening Results, Bacteria Code E [2]: Y
21 | N[C@@H](CO)C(=O)O [L-Serine] | Y | Y |  | Carbohydrate Screening Results, Bacteria Code B [1]: Y; Carbohydrate Screening Results, Bacteria Code E [2]: Y
22 | N[C@H](CO)C(=O)O [D-Serine] |  |  | not utilized by any of the bacteria | 
23 | O=C(CO)[C@@H](O)[C@@H](O)[C@H](O)CO [D-Tagatose] |  |  | not utilized by any of the bacteria | 
24 | O=C[C@H](O)[C@H](O)[C@@H](O)CO [L-Lyxose] |  |  | not utilized by any of the bacteria | 
25 | N[C@@H](Cc1ccccc1)C(=O)O [L-Phenylalanine] |  |  | not utilized by any of the bacteria | 
26 | OC[C@@H](O)[C@H](O)[C@@H](O)CO [Xylitol] |  |  | not utilized by any of the bacteria | 
27 | CC(=O)C(C)O (centres unmarked) [3-Hydroxy 2-Butanone] | Y | Y |  | 
28 | C/C=C/C=C/C(=O)O [Sorbic Acid] |  |  | not utilized by any of the bacteria | 
29 | O=C(O)[C@@H](O)[C@H](O)C(=O)O [D-Tartaric Acid] |  |  | not utilized by any of the bacteria | 
30 | OC[C@H]1O[C@@H](O)[C@H](O)[C@H](O)[C@@H]1O [β-D-Allose] |  |  | not utilized by any of the bacteria | 
31 | O=C(O)Cc1ccc(O)cc1 [p-hydroxy phenyl acetic acid] |  |  | not utilized by any of the bacteria | 
32 | C[C@@H](O)[C@H](O)[C@H](O)[C@@H](O)C=O [D-Fucose] |  |  | not utilized by any of the bacteria | 
